Laboratory results as given in patent US8791264B2 (Purdue Pharma L.P., priority 2006, dated 2014).

Columns and labels:
[1] = target: T1, N-type calcium channel (NTCC) (Homo sapiens, UniProt Q00975); test: FLIPR calcium mobilization assay for N-type calcium channel; type: cell-based; settings: calcium mobilization in vitro assay; differentiated IMR32 cells
T1 construct: host or cells: IMR32 cells differentiated with dibutyryl cAMP and bromodeoxyuridine
In short: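 Differentiated IMR32 cells (8 days, dibutyryl cAMP and BrdU) loaded with 3 μM Fluo-4 during 90 mM KCl pre-stimulation, with compound at about 846 pM to 17 μM plus 5 μM nitrendipine. After washes in compound, FLIPR read basal fluorescence 315 s, then 45 s after KCl addition (final 90 mM).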

[2] = target: T2, recombinant rat L-type calcium channel (LTCC) subunits (α1c, α2δ, and β1) (Rattus norvegicus, UniProt P22002); test: FLIPR calcium mobilization assay for L-type calcium channel; type: cell-based; settings: calcium mobilization in vitro assay; HEK293 cells expressing rat LTCC
T2 construct: expressed in transfected cells
In short: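 HEK293 cells stably expressing rat LTCC (α1c, α2δ, β1), Fluo-4 loaded in pH 7.4 buffer with 5 mM CaCl2. Compound (about 846 pM to 17 μM final) applied 5 minutes before depolarization with 90 mM KCl final; FLIPR fluorescence recorded throughout.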

T1 sequence (Q00975 whole entry): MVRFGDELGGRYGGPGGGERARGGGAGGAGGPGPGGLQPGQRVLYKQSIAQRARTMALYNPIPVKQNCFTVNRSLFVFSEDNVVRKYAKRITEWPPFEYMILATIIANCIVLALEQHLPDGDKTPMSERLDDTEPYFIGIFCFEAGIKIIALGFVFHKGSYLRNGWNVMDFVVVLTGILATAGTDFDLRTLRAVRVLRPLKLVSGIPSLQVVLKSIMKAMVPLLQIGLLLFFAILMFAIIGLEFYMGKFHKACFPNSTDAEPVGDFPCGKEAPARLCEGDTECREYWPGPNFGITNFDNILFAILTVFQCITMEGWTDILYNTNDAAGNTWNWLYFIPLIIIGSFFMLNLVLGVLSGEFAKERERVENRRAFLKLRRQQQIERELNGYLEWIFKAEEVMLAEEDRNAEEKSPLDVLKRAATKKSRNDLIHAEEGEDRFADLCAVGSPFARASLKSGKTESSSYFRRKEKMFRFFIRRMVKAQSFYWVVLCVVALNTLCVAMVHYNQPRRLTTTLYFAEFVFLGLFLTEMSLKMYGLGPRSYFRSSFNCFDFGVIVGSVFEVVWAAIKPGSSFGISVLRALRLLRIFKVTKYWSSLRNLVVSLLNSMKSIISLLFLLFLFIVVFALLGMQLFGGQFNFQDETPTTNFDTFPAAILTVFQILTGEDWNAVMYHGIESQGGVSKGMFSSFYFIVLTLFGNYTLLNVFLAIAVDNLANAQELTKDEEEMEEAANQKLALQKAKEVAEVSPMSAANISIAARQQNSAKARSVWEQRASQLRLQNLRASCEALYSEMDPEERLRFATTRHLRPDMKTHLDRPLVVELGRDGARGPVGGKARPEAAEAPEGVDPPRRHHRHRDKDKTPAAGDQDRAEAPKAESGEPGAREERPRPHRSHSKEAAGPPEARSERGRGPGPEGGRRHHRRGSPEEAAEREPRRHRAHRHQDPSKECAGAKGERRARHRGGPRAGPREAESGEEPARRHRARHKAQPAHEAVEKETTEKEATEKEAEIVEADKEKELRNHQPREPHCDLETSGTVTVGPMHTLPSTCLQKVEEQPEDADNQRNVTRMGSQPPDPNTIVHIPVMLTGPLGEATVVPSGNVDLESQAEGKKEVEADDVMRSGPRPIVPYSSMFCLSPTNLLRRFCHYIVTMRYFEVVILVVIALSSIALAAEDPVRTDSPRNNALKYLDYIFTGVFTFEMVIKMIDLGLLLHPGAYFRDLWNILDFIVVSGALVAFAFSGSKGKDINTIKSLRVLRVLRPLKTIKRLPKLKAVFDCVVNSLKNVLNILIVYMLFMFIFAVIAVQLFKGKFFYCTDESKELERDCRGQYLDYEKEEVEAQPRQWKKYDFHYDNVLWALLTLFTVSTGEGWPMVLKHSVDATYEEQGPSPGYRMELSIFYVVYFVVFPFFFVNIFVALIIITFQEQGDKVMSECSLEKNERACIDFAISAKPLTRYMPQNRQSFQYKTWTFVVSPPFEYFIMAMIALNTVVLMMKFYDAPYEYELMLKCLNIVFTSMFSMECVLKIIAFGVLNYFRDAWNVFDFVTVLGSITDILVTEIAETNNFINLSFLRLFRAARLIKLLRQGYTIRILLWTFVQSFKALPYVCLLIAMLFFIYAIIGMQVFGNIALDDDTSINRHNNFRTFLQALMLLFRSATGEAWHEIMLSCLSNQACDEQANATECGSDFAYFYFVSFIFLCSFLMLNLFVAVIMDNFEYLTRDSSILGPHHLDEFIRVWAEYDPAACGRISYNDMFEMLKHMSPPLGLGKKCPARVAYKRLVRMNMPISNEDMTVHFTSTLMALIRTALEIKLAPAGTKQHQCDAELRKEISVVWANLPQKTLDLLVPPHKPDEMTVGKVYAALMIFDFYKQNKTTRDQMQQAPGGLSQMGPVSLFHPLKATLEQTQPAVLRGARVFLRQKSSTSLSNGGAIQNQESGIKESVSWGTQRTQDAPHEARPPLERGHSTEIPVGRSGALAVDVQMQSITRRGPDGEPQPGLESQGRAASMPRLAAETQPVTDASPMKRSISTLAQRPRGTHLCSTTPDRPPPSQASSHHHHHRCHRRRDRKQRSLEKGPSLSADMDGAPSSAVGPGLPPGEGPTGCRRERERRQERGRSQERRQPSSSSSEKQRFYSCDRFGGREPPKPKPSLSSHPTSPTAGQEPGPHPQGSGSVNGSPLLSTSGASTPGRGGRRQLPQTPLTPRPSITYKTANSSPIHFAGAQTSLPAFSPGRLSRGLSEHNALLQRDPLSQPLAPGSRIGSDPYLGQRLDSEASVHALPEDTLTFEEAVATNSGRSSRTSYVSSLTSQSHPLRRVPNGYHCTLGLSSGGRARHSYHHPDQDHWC
T1 sequence (P54289 25-956 partner limits assumed): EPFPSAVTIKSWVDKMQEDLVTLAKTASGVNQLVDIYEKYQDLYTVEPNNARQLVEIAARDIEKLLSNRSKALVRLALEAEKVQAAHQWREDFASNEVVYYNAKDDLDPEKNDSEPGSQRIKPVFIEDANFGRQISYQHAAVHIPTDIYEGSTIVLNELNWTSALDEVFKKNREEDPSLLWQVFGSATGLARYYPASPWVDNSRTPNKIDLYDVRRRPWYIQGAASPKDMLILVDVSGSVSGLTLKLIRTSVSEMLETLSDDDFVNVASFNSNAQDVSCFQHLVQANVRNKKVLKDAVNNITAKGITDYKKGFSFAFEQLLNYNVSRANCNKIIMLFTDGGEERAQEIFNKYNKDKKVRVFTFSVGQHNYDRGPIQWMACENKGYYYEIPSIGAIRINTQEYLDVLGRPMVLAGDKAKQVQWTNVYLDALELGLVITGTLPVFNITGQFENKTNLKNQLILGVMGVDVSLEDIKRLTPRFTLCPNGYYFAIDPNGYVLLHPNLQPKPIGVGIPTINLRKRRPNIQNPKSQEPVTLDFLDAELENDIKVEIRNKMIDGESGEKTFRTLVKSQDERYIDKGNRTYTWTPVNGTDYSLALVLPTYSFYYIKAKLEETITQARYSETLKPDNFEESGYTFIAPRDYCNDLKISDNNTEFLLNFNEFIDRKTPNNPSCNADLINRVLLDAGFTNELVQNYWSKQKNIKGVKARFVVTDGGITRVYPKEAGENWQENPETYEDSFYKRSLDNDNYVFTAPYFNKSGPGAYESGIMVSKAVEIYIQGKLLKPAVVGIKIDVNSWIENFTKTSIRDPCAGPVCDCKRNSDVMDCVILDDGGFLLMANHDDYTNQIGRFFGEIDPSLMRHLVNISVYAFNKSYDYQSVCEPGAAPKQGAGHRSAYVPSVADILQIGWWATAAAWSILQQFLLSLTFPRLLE
T1 sequence (P54289 957-1103 partner limits assumed): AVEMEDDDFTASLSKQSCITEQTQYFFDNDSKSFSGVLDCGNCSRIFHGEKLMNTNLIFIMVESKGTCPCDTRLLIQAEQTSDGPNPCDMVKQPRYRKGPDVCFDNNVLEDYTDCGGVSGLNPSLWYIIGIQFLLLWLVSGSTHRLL
T1 sequence (P54284 whole entry partner): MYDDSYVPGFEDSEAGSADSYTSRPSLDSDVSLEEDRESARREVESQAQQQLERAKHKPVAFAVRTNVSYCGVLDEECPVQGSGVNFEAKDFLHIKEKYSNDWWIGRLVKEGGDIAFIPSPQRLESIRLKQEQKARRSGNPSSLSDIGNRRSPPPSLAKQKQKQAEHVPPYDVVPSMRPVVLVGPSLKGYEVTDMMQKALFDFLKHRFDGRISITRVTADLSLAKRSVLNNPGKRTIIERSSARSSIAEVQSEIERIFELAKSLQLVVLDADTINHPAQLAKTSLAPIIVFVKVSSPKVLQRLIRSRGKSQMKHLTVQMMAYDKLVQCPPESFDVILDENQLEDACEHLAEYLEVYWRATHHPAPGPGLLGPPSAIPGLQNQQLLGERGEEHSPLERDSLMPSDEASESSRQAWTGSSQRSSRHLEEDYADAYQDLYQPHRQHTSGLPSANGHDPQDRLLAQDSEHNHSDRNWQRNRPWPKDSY

Structure (SMILES): O=C(CC(=O)N1CCC(N(C2CC2)S(=O)(=O)c2cccc(C(F)(F)F)c2)CC1)Nc1ccc(F)cc1 [Compound 26, 3-{4-[Cyclopropyl-(3-trifluoromethylbenzenesulfonyl)amino]-piperidin-1-yl}-N-(4-fluorophenyl)-3-oxo-propionamide]
- IC50 [1]: 440 nM
- IC50 [2]: 3780 nM

Structure (SMILES): CC(C)N(C1CCN(C(=O)CCNc2cccc(Cl)c2)CC1)S(=O)(=O)c1cccc(C(F)(F)F)c1 [N-{1-[3-(3-chloro-phenylamino)-propionyl]-piperidin-4-yl}-N-isopropyl-3-trifluoromethyl-benzenesulfonamide]
- IC50 [1]: 900 nM
- IC50 [2]: > 20000 nM

Structure (SMILES): COc1ccc(CNCC(=O)N2CCC(N(C3CC3)S(=O)(=O)c3cccc(C(F)(F)F)c3)CC2)cc1 [Compound 99, N-Cyclopropyl-N-{1-[2-(4-methoxybenzylamino)acetyl]-piperidin-4-yl}-3-trifluoromethylbenzenesulfonamide]
- IC50 [1]: 350 nM
- IC50 [2]: > 20000 nM

Structure (SMILES): O=C(CN1CCC(N(C2CC2)S(=O)(=O)c2cccc(Cl)c2)CC1)Nc1ccc(F)cc1 [Compound 50, 2-{4-[(3-Chlorobenzenesulfonyl)cyclopropylamino]-piperidin-1-yl}-N-(4-fluorophenyl)acetamide]
- IC50 [1]: 840 nM
- IC50 [2]: 10000 to 20000 nM

Structure (SMILES): O=C(CN1CCC(N(C2CC2)S(=O)(=O)c2cccc(C(F)(F)F)c2)CC1)Nc1cncc(F)c1 [Compound 78, 2-{4-[Cyclopropyl-(3-trifluoromethylbenzenesulfonyl)amino]-piperidin-1-yl}-N-(5-fluoro-pyridin-3-yl)-acetamide]
- IC50 [1]: 610 nM
- IC50 [2]: > 20000 nM

Structure (SMILES): CC(C)N(C1CCN(C(=O)CCNc2ccccc2OC(F)(F)F)CC1)S(=O)(=O)c1cccc(C(F)(F)F)c1 [N-isopropyl-N-{1-[3-(2-trifluoromethoxy-phenylamino)-propionyl]-piperidin-4-yl}-3-trifluoromethyl-benzenesulfonamide]
- IC50 [1]: 330 nM
- IC50 [2]: > 20000 nM

Structure (SMILES): CC(C)c1ccc(NC(=O)CN2CCC(N(C(C)C)S(=O)(=O)c3cccc(C(F)(F)F)c3)CC2)cc1 [Compound 42f, N-(4-Isopropylphenyl)-2-{4-[isopropyl-(3-trifluoromethylbenzenesulfonyl)amino]-piperidin-1-yl}-acetamide]
- IC50 [1]: 630 nM
- IC50 [2]: > 20000 nM
